For assay [1], the system named is experimental hepatopathy models prepared by D-galactosamine administration. As to the kind of experiment: Inhibitory action on hepatopathy in hepatopathy models by D-galactosamine (serum GPT and GOT). It is filed as in vivo, Wistar strain male mice. The following applies: iv, 24 h, 2 hours after D-galactosamine; for inhibition in vivo at 0.03 mg/kg / inhibition in vivo at 0.01 mg/kg: lipid emulsion, i.v.; for inhibition in vivo at 0.03 mg/kg: dose 30 μg/kg; for inhibition in vivo at 0.01 mg/kg: dose 10 μg/kg; for inhibition in vivo at 3 mg/kg: dissolved in distilled water, dose 3000 μg/kg. The method, then: In these tests, GPT (glutamic-pyruvic transaminase) and GOT (glutamic-oxaloacetic transaminase) were determined using kits for the determination of GPT and GOT upon the method by U. Lippi et al., Iatrozyme TA-Lq (available from Iatron Laboratories Inc.), wherein the NADH formed when enzymes act upon substrates can reduce nitrotetrazolium blue (NTB) via 1-methoxy-5-methylphenazinium methylsulfate (1-methoxy PMS) to form formazan, which is then subjected to colorimetric analysis at a wavelength of 560 nm.
Inhibitory action of lipid emulsions containing the present isoprenylamine derivatives was evaluated by inhibition rates of GPT and GOT in experimental hepatopathy models prepared by D-galactosamine administration.
The experimental hepatopathy model was prepared by intraperitoneal administration of D-galactosamine at 400 mg/kg to Wistar strain male […] weighing about 170 g. The present isoprenylamine derivative was formulated to a lipid emulsion according to the method described in Pharmaceutical Example 8, and was intravenously administered at a dose of 10-30 μg/kg 2 hours after the administration of D-galactosamine.
24 hours after the D-galactosamine administration, blood samples were collected form animals under ether anesthesia and centrifuged. Then, serum GPT and GOT were determined and the respective inhibition rates were calculated on the bases of the serum GPT and GOT values obtained when the present isoprenylamine derivatives were not administered being defined as 100, respectively.
For comparison, glycyrrhizin ammonium (Tokyo Kasei Co.) dissolved in distilled water was administered in a similar manner to that for the isoprenylamine derivatives, blood sampling and determination were conducted and the serum GPT and GOT inhibition rates were calculated.

Assay [2] deals with experimental hepatopathy models prepared by administering carbon tetrachloride. As to the kind of experiment: Inhibitory action on hepatopathy in hepatopathy models by carbon tetrachloride (lipid emulsion; serum GPT and GOT). It is filed as in vivo, ddY strain male mice. Conditions: Mus musculus, iv, 20 h, i.v., one hour before carbon tetrachloride; for inhibition in vivo at 0.01 mg/kg: dose 10 μg/kg; for inhibition in vivo at 0.001 mg/kg: dose 1 μg/kg; for inhibition in vivo at 0.0001 mg/kg: dose 0.1 μg/kg. The method, then: Carbon tetrachloride was diluted with olive oil to a concentration of 0.5% when administered. The present isoprenylamine derivatives were formulated into the lipid emulsions according to the method described in Pharmaceutical Example 8 and intravenously administered at a dose of 0.1-10 μg/kg one hour before the administration of carbon tetrachloride. 20 hours after the administration of carbon tetrachloride, blood samples were collected from animals under ether anesthesia and centrifuged. Then, serum GPT and GOT were determined and the respective inhibition rates were calculated on the bases of the serum GPT and GOT values obtained when the present isoprenylamine derivative was not administered being defined as 100, respectively.

Structures can show the parent of a compound that is named as a salt. Where two headings read alike, the source gives them in different places.

Take `CC(C)=CCC/C(C)=C/CC/C(C)=C/CC/C(C)=C/CC/C(C)=C/CC/C(C)=C/CC/C(C)=C/CC/C(C)=C/CC/C(C)=C/CNCc1cccnc1` [Compound 26, N-solanesyl-3-pyridylmethylamine dihydrochloride]: the results for the inhibition in vivo at 0.03 mg/kg in assay [1] (read-out: GOT inhibition) and in assay [1] (read-out: GPT inhibition) were 40% and 35%, respectively.
In the case of `CC(C)=CCC/C(C)=C/CC/C(C)=C/CC/C(C)=C/CC/C(C)=C/CC/C(C)=C/CC/C(C)=C/CC/C(C)=C/CC/C(C)=C/CNCc1ccc(O)cc1` [Compound 8, N-solanesyl-4-hydroxybenzylamine hydrochloride], the inhibition in vivo at 0.01 mg/kg in assay [2] (read-out: GOT inhibition) is 25%; in assay [2] (read-out: GPT inhibition), 22%.
On to `CC(C)=CCC/C(C)=C/CC/C(C)=C/CC/C(C)=C/CC/C(C)=C/CC/C(C)=C/CC/C(C)=C/CC/C(C)=C/CC/C(C)=C/CNCc1ccc(C)cc1` [Compound 10, N-solanesyl-4-methylbenzylamine hydrochloride], for which the inhibition in vivo at 0.03 mg/kg in assay [1] (read-out: GOT inhibition) was found to be 54%; in assay [1] (read-out: GPT inhibition) it was 63%.
`CC(C)=CCC/C(C)=C/CC/C(C)=C/CC/C(C)=C/CNCc1ccc2c(c1)OCO2` [Compound 1, N-geranylgeranylpiperonylamine hydrochloride]: the values for the inhibition in vivo at 0.001 mg/kg in assay [2] (read-out: GOT inhibition) and in assay [2] (read-out: GPT inhibition) were 13% and 21%, respectively.
As to `CC(C)=CCC/C(C)=C/CC/C(C)=C/CC/C(C)=C/CC/C(C)=C/CC/C(C)=C/CC/C(C)=C/CC/C(C)=C/CC/C(C)=C/CNCc1ccc(O)c(O)c1` [Compound 11, N-solanesyl-3,4-dihydroxybenzylamine hydrochloride], the results for the inhibition in vivo at 0.03 mg/kg in assay [1] (read-out: GOT inhibition) and in assay [1] (read-out: GPT inhibition) were 41% and 55%, respectively.
The corresponding values for `CC(C)=CCC/C(C)=C/CC/C(C)=C/CC/C(C)=C/CC/C(C)=C/CC/C(C)=C/CC/C(C)=C/CC/C(C)=C/CC/C(C)=C/CNCc1ccco1` [Compound 24, N-solanesyl-2-furfurylamine hydrochloride] are 30% and 25%.
As for `CC(C)=CCC/C(C)=C/CC/C(C)=C/CC/C(C)=C/CC/C(C)=C/CC/C(C)=C/CC/C(C)=C/CC/C(C)=C/CC/C(C)=C/CN(C)Cc1ccc2c(c1)OCO2` [Compound 19, N-methyl-N-solanesylpiperonylamine], the inhibition in vivo at 0.001 mg/kg in assay [2] (read-out: GOT inhibition) came to 43%; in assay [2] (read-out: GPT inhibition), 31%.
With `CC(C)=CCC/C(C)=C/CC/C(C)=C/CC/C(C)=C/CC/C(C)=C/CC/C(C)=C/CC/C(C)=C/CC/C(C)=C/CNCc1ccc2c(c1)OCO2` [Compound 5, N-farnesylfarnesylgeranylpiperonylamine hydrochloride], the inhibition in vivo at 0.01 mg/kg stood at 29% in assay [1] (read-out: GOT inhibition) and 27% in assay [1] (read-out: GPT inhibition).
With `COc1cc(CNC/C=C(\C)CC/C=C(\C)CC/C=C(\C)CC/C=C(\C)CC/C=C(\C)CC/C=C(\C)CC/C=C(\C)CC/C=C(\C)CCC=C(C)C)ccc1O` [Compound 12, N-solanesyl-4-hydroxy-3-methoxybenzylamine hydrochloride], the results for the inhibition in vivo at 0.03 mg/kg in assay [1] (read-out: GOT inhibition) and in assay [1] (read-out: GPT inhibition) were 42% and 53%, respectively.
The corresponding values for `CC(C)=CCC/C(C)=C/CC/C(C)=C/CC/C(C)=C/CC/C(C)=C/CC/C(C)=C/CC/C(C)=C/CC/C(C)=C/CC/C(C)=C/CNCCCc1ccc2c(c1)OCO2` [Compound 18, N-solanesyl-3-(3,4-methylenedioxyphenyl)propylamine hydrochloride] are 22% and 20%.
Turning to `COc1c(C)c(CNC/C=C(\C)CC/C=C(\C)CC/C=C(\C)CC/C=C(\C)CC/C=C(\C)CC/C=C(\C)CC/C=C(\C)CC/C=C(\C)CCC=C(C)C)c(OC)c(OC)c1OC` [Compound 14, N-solanesyl-2,3,4,5-tetramethoxy-6-methylbenzylamine hydrochloride], the inhibition in vivo at 0.03 mg/kg in assay [1] (read-out: GOT inhibition) amounted to 55%; in assay [1] (read-out: GPT inhibition) it was 64%.
Consider `CC(C)=CCC/C(C)=C/CC/C(C)=C/CC/C(C)=C/CC/C(C)=C/CC/C(C)=C/CNCc1ccc2c(c1)OCO2` [Compound 3, N-farnesylfarnesylpiperonylamine hydrochloride], for which the inhibition in vivo at 0.01 mg/kg came to 21% in assay [1] (read-out: GOT inhibition) and 20% in assay [1] (read-out: GPT inhibition).
On to `CC(C)=CCC/C(C)=C/CC/C(C)=C/CC/C(C)=C/CC/C(C)=C/CC/C(C)=C/CC/C(C)=C/CC/C(C)=C/CC/C(C)=C/CNCCc1ccc2c(c1)OCO2` [Compound 17, N-Solanesyl-2-(3,4-methylenedioxyphenyl)ethylamine Hydrochloride], for which the inhibition in vivo at 0.03 mg/kg was 24% in assay [1] (read-out: GOT inhibition) and 23% in assay [1] (read-out: GPT inhibition).
Regarding `CC(C)=CCC/C(C)=C/CC/C(C)=C/CC/C(C)=C/CC/C(C)=C/CC/C(C)=C/CC/C(C)=C/CC/C(C)=C/CC/C(C)=C/CC/C(C)=C/CC/C(C)=C/CNCc1ccc2c(c1)OCO2` [Compound 21, N-undecaprenylpiperonylamine hydrochloride], the inhibition in vivo at 0.001 mg/kg stood at 38% in assay [2] (read-out: GOT inhibition) and 33% in assay [2] (read-out: GPT inhibition).
Turning to `COc1ccc(CNC/C=C(\C)CC/C=C(\C)CC/C=C(\C)CC/C=C(\C)CC/C=C(\C)CC/C=C(\C)CC/C=C(\C)CC/C=C(\C)CCC=C(C)C)cc1OC` [Compound 13, N-solanesylveratrylamine hydrochloride], the inhibition in vivo at 0.0001 mg/kg in assay [2] (read-out: GOT inhibition) was 14%; in assay [2] (read-out: GPT inhibition), 21%.
In the case of `CC(C)=CCC/C(C)=C/CC/C(C)=C/CC/C(C)=C/CC/C(C)=C/CC/C(C)=C/CC/C(C)=C/CC/C(C)=C/CC/C(C)=C/CNCc1ccccc1` [Compound 7, N-solanesylbenzylamine hydrochloride], the inhibition in vivo at 0.001 mg/kg in assay [2] (read-out: GOT inhibition) and in assay [2] (read-out: GPT inhibition) was 42% each time.
As for `CC(C)=CCC/C(C)=C/CC/C(C)=C/CC/C(C)=C/CC/C(C)=C/CNCc1ccc2c(c1)OCO2` [Compound 2, N-farnesylgeranylpiperonylamine hydrochloride], the inhibition in vivo at 0.01 mg/kg in assay [1] (read-out: GOT inhibition) and in assay [1] (read-out: GPT inhibition) was 23% in each case.
For the molecule `CC1(C)[C@@H](O[C@H]2O[C@H](C(=O)O)[C@@H](O)[C@H](O)[C@H]2O[C@@H]2O[C@H](C(=O)O)[C@@H](O)[C@H](O)[C@H]2O)CC[C@]2(C)[C@H]3C(=O)C=C4[C@@H]5C[C@@](C)(C(=O)O)CC[C@]5(C)CC[C@@]4(C)[C@]3(C)CC[C@@H]12` [Glycyrrhizin ammonium, glycyrrhizin ammonium, reference compound], the inhibition in vivo at 3 mg/kg in assay [1] (read-out: GOT inhibition) turned out to be 22%; in assay [1] (read-out: GPT inhibition), 25%.
Consider `CC(C)=CCC/C(C)=C/CC/C(C)=C/CC/C(C)=C/CC/C(C)=C/CC/C(C)=C/CC/C(C)=C/CC/C(C)=C/CC/C(C)=C/CNCc1cccs1` [Compound 25, N-solanesyl-2-thienylamine hydrochloride], for which the inhibition in vivo at 0.03 mg/kg in assay [1] (read-out: GOT inhibition) amounted to 32%; in assay [1] (read-out: GPT inhibition) it was 30%.
The corresponding values for `CC(C)=CCC/C(C)=C/CC/C(C)=C/CC/C(C)=C/CC/C(C)=C/CC/C(C)=C/CC/C(C)=C/CC/C(C)=C/CC/C(C)=C/CNCc1ccc(Cl)cc1` [Compound 9, N-solanesyl-4-chlorobenzylamine hydrochloride] are 47% and 53%.
The corresponding values for `CC(C)=CCC/C(C)=C/CC/C(C)=C/CC/C(C)=C/CC/C(C)=C/CC/C(C)=C/CC/C(C)=C/CC/C(C)=C/CC/C(C)=C/CNc1ccc2c(c1)OCO2` [Compound 16, N-solanesyl-(3,4-methylenedioxy)aniline hydrochloride] are 48% and 43%.

The record behind these values is patent US6048882A, “Prophylactic and therapeutic agent for hepatic diseases” (Nisshin Flour Milling Co., Ltd., priority 1995, dated 2000).
